Assay results from patent US8273900B2, “Organic compounds” (Novartis AG, priority 2008, dated 2012).

Target: T1, human recombinant CRF-1 receptor (Homo sapiens, UniProt P34998)
T1 construct: expressed in transfected cells; host or cells: CHO cells (G418-selected)
T1 sequence (P34998 24-415): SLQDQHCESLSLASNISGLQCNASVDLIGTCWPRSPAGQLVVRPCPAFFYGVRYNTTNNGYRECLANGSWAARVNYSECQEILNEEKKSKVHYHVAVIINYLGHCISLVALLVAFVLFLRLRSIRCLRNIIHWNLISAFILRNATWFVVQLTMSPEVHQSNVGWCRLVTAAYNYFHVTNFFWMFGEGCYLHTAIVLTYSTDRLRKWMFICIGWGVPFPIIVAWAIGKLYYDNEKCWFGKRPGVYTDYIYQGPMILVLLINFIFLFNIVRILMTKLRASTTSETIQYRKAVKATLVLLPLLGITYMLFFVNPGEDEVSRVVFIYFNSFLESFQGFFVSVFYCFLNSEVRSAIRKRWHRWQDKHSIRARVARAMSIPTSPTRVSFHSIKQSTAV
Experiment: CRF-1 receptor antagonism, HTRF cAMP assay in CHO cells in the presence of 1 nM CRF
Type: cell-based
Conditions: CHO cells expressing human recombinant CRF-1; inhibition of the effect of 1 nM CRF on cAMP
Description: The CRF-1 or CRF-2α receptor antagonistic activity of the agents of the invention has been determined in vitro in the following assay:
Chinese hamster ovary (CHO) cells expressing either the human recombinant CRF-1 or CRF-2a receptors (Chen et al., Proc Natl Acad Sci USA 90, 8967-8971, 1993; Liaw et al., Endocrinology 137, 72-77, 1996) are propagated in Dulbecco's modified Eagle medium supplemented with 10% foetal calf serum, non-essential amino acids, 100 U/ml penicillin, 100 mg/l streptomycin and 1 g/l geneticin (G418). For cyclic AMP determinations the Homogeneous Time-Resolved Fluoresce (HTRF) cAMP dynamic 2 kit (Cisbio International, France) was used as per manufacturers' instructions. CHO cells, previously cryopreserved, were thawed, centrifuged for 7 mins at 1200 rpm and resuspended in serum free media, then pipetted out onto clear bottomed black tissue culture treated 384-well microtitre plates (Corning Inc, US) at 2,000 cells per well. Compounds of the invention, prepared in DMSO, and subsequently diluted 50 fold in assay buffer (1× Hanks balanced salt solution, 0.2% (w/v) bovine serum albumin, 1.7 mM isobutylmethylxanthine and 10 mM Hepes, pH 7.4) are then added onto the cell containing plate where a further 2 fold dilution is performed and incubated for 15 min. Following incubation, buffer containing a 5 times final concentration of agonist is added to the plate and incubated for 30 min. Finally, d2 dye labelled cAMP and cryptate labeled anti-cAMP antibody, both made in lysis buffer, are added to the plate followed by a settling period of 1 hour. During the settling period cAMP produced by the cells competes with the d2 labelled cAMP for the anti-cAMP cryptate. The plate is read on the Pherastar (BMG, Germany). Increasing levels of endogenous cAMP produced by cells can be followed by a decrease of fluorescent signal and vice versa. Values represented by a change in arbitrary fluorescence units are converted into cAMP concentrations by use of a standard curve the reagents for which are supplied with the kit. Antagonist dose response curves (1 nM-30 μM) are constructed in the presence of 1 nM CRF. IC50 values of antagonists are calculated by fitting the percent inhibition of the effect of CRF by increasing concentrations of the antagonists. The fit is performed using the nonlinear logistic function of the Activitybase software package v 5.4.5.27 (IDBS, UK).

Structure (SMILES)	IC50 [µM]
Cc1ccncc1NC[C@H]1CC[C@@H](NC(=O)c2cc(C(F)(F)F)ccc2Cl)CC1 [Example 14.1, Cis-2-chloro-N-((1s,4s)-4-((4-methylpyridin-3-ylamino)methyl)cyclohexyl)-5-(trifluoromethyl)benzamide]	2.21
CC(Nc1ccccc1)[C@H]1CC[C@H](NC(=O)c2cc(C(F)(F)F)ccc2Cl)CC1 (stereo partly drawn) [Example 15, Trans-2-Chloro-N-[4-(1RS-phenylamino-ethyl)-cyclohexyl]-5-trifluoromethyl-benzamide]	0.108
Cc1ncc(Cl)cc1C(=O)N[C@H]1CC[C@H](Cn2nc(C)c(Cl)c2C)CC1 [Example 17, Trans-5-Chloro-N-[4-(4-chloro-3,5-dimethyl-pyrazol-1-ylmethyl)-cyclohexyl]-2-methyl-nicotinamide]	0.07
Cc1ncc(Cl)cc1C(=O)N[C@H]1CC[C@H](Cn2nc(C)c(C)c2C)CC1 [Example 18, Trans-5-Chloro-2-methyl-N-[4-(3,4,5-trimethyl-pyrazol-1-ylmethyl)-cyclohexyl]-nicotinamide]	0.577
O=C(N[C@H]1CC[C@H](CNc2cncc(F)c2)CC1)c1cc(C(F)(F)F)ccc1Cl [Example 19.1, Trans-2-chloro-N-(4-((5-fluoropyridin-3-ylamino)methyl)cyclohexyl)-5-(trifluoromethyl) benzamide]	0.026
O=C(N[C@H]1CC[C@H](CNc2ccc(F)cn2)CC1)c1cc(C(F)(F)F)ccc1Cl [Example 19.2, Trans-2-chloro-N-(4-((5-fluoropyridin-2-ylamino)methyl)cyclohexyl)-5-(trifluoromethyl) benzamide]	0.023
Cc1cc(NC[C@H]2CC[C@H](NC(=O)c3cc(C(F)(F)F)ccc3Cl)CC2)ncc1F [Example 19.26, Trans-2-chloro-N-(4-((5-fluoro-4-methylpyridin-2-ylamino)methyl)cyclohexyl)-5-(trifluoromethyl) benzamide]	0.013
O=C(N[C@H]1CC[C@H](CNc2n[nH]c3c2CCCC3)CC1)c1cc(C(F)(F)F)ccc1Cl [Example 19.49, Trans-2-chloro-N-(4-((4,5,6,7-tetrahydro-1H-indazol-3-ylamino)methyl)cyclohexyl)-5-(trifluoromethyl) benzamide]	0.031
CCc1cncc(NC[C@H]2CC[C@H](NC(=O)c3cc(C(F)(F)F)ccc3Cl)CC2)c1 [Example 19.53, Trans-2-chloro-N-(4-((5-ethylpyridin-3-ylamino)methyl)cyclohexyl)-5-(trifluoromethyl) benzamide]	0.028
Cc1cc(NC[C@H]2CC[C@H](NC(=O)c3cc(Cl)cnc3C)CC2)ncc1F [Example 19.54, Trans-5-chloro-N-(4-((5-fluoro-4-methylpyridin-2-ylamino)methyl)cyclohexyl)-2-methylnicotinamide]	0.062
Cc1ncc(Cl)cc1C(=O)N[C@H]1CC[C@H](CNc2n[nH]c3c2CCCC3)CC1 [Example 19.55, Trans-5-chloro-2-methyl-N-(4-((4,5,6,7-tetrahydro-1H-indazol-3-ylamino)methyl)cyclohexyl) nicotinamide]	0.143
COc1ncc(C)cc1NC[C@H]1CC[C@H](NC(=O)c2cc(C(F)(F)F)ccc2Cl)CC1 [Example 19.56, Trans-2-chloro-N-(4-((2-methoxy-5-methylpyridin-3-ylamino)methyl)cyclohexyl)-5-(trifluoromethyl) benzamide]	0.084
O=C(N[C@H]1CC[C@H](CNc2n[nH]c3ncccc23)CC1)c1cc(C(F)(F)F)ccc1Cl [Example 19.57, Trans-N-(4-((1H-pyrazolo[3,4-b]pyridin-3-ylamino)methyl)cyclohexyl)-2-chloro-5-(trifluoromethyl) benzamide]	0.088
Cc1ccc2[nH]nc(NC[C@H]3CC[C@H](NC(=O)c4cc(C(F)(F)F)ccc4Cl)CC3)c2c1 [Example 19.59, Trans-2-chloro-N-(4-((5-methyl-1H-indazol-3-ylamino)methyl)cyclohexyl)-5-(trifluoromethyl) benzamide]	0.087
O=C(N[C@H]1CC[C@H](CNc2n[nH]c3ccc(F)cc23)CC1)c1cc(C(F)(F)F)ccc1Cl [Example 19.62, Trans-2-chloro-N-(4-((5-fluoro-1H-indazol-3-ylamino)methyl)cyclohexyl)-5-(trifluoromethyl) benzamide]	0.09
O=C(N[C@H]1CC[C@H](CNc2n[nH]c3cccc(F)c23)CC1)c1cc(C(F)(F)F)ccc1Cl [Example 19.63, Trans-2-chloro-N-(4-((4-fluoro-1H-indazol-3-ylamino)methyl)cyclohexyl)-5-(trifluoromethyl) benzamide]	0.017
Cc1cccc2[nH]nc(NC[C@H]3CC[C@H](NC(=O)c4cc(C(F)(F)F)ccc4Cl)CC3)c12 [Example 19.65, Trans-2-chloro-N-(4-((4-methyl-1H-indazol-3-ylamino)methyl)cyclohexyl)-5-(trifluoromethyl) benzamide]	0.053
O=C(N[C@H]1CC[C@H](CNc2n[nH]c3ccc(Cl)cc23)CC1)c1cc(C(F)(F)F)ccc1Cl [Example 19.66, Trans-2-chloro-N-(4-((5-chloro-1H-indazol-3-ylamino)methyl)cyclohexyl)-5-(trifluoromethyl) benzamide]	0.062
COc1ccc2c(NC[C@H]3CC[C@H](NC(=O)c4cc(C(F)(F)F)ccc4Cl)CC3)n[nH]c2c1 [Example 19.68, Trans-2-chloro-N-(4-((6-methoxy-1H-indazol-3-ylamino)methyl)cyclohexyl)-5-(trifluoromethyl) benzamide]	0.032
Cc1cc(NC[C@H]2CC[C@H](NC(=O)c3cc(C(F)(F)F)ccc3Cl)CC2)ncc1Cl [Example 19.69, Trans-2-chloro-N-(4-((5-chloro-4-methylpyridin-2-ylamino)methyl)cyclohexyl)-5-(trifluoromethyl) benzamide]	0.022
Cn1nc(NC[C@H]2CC[C@H](NC(=O)c3cc(C(F)(F)F)ccc3Cl)CC2)c2ccccc21 [Example 19.70, Trans-2-chloro-N-(4-((1-methyl-1H-indazol-3-ylamino)methyl)cyclohexyl)-5-(trifluoromethyl) benzamide]	0.029
Cc1n[nH]c(NC[C@H]2CC[C@H](NC(=O)c3cc(C(F)(F)F)ccc3Cl)CC2)c1-c1ccccc1 [Example 19.71, Trans-2-chloro-N-(4-((3-methyl-4-phenyl-1H-pyrazol-5-ylamino)methyl)cyclohexyl)-5-(trifluoromethyl) benzamide]	0.14
Cc1ncc(Cl)cc1NC[C@H]1CC[C@H](NC(=O)c2cc(C(F)(F)F)ccc2Cl)CC1 [Example 19.73, Trans-2-chloro-N-(4-((5-chloro-2-methylpyridin-3-ylamino)methyl)cyclohexyl)-5-(trifluoromethyl) benzamide]	0.019
Cc1ccc2c(NC[C@H]3CC[C@H](NC(=O)c4cc(C(F)(F)F)ccc4Cl)CC3)n[nH]c2n1 [Example 19.74, Trans-2-chloro-N-(4-((6-methyl-1H-pyrazolo[3,4-b]pyridin-3-ylamino)methyl)cyclohexyl)-5-(trifluoromethyl) benzamide]	0.054
Cc1ncc(NC[C@H]2CC[C@H](NC(=O)c3cc(C(F)(F)F)ccc3Cl)CC2)cc1Cl [Example 19.75, Trans-2-chloro-N-(4-((5-chloro-6-methylpyridin-3-ylamino)methyl)cyclohexyl)-5-(trifluoromethyl) benzamide]	0.054
CCCc1[nH]nc(NC[C@H]2CC[C@H](NC(=O)c3cc(C(F)(F)F)ccc3Cl)CC2)c1Br [Example 19.76, Trans-N-(4-((4-bromo-5-propyl-1H-pyrazol-3-ylamino)methyl)cyclohexyl)-2-chloro-5-(trifluoromethyl) benzamide]	0.078
Cc1c(NC[C@H]2CC[C@H](NC(=O)c3cc(C(F)(F)F)ccc3Cl)CC2)n[nH]c1-c1ccccc1 [Example 19.79, Trans-2-chloro-N-(4-((4-methyl-5-phenyl-1H-pyrazol-3-ylamino)methyl)cyclohexyl)-5-(trifluoromethyl) benzamide]	0.037
